Results published in ChEMBL document CHEMBL1140599, “DAT/SERT selectivity of flexible GBR 12909 analogs modeled using 3D-QSAR methods” (Bioorg Med Chem, 2007).

Key:
Rattus norvegicus = species on record: Rattus norvegicus; test: Selectivity for rat DAT over rat SERT
[1] = target: Sodium-dependent dopamine transporter (Rattus norvegicus, UniProt P23977); test: Displacement of [125I]RTI55 from DAT in rat brain synaptosomes; type: subcellular
[2] = target: Sodium-dependent serotonin transporter (Rattus norvegicus, UniProt P31652); test: Displacement of [125I]RTI55 from SERT in rat brain synaptosomes; type: subcellular
Chain of Sodium-dependent serotonin transporter (P31652 whole entry): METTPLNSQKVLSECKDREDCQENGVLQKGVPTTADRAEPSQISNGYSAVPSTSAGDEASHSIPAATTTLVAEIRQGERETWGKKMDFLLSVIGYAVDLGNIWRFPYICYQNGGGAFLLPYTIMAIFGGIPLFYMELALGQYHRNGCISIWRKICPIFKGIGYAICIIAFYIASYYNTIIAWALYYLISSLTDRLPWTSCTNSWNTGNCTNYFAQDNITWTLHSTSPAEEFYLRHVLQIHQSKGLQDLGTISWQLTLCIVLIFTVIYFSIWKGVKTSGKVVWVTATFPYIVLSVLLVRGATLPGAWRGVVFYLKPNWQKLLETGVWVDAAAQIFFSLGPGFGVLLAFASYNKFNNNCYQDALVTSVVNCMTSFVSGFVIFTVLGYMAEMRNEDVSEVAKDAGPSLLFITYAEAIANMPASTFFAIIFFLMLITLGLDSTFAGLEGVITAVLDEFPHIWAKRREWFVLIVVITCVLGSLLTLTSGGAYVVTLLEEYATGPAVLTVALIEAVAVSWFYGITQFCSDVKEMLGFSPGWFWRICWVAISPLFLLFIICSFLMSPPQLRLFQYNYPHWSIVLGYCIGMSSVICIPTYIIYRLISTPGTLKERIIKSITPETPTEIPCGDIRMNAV

Chain of Sodium-dependent dopamine transporter (P23977 whole entry): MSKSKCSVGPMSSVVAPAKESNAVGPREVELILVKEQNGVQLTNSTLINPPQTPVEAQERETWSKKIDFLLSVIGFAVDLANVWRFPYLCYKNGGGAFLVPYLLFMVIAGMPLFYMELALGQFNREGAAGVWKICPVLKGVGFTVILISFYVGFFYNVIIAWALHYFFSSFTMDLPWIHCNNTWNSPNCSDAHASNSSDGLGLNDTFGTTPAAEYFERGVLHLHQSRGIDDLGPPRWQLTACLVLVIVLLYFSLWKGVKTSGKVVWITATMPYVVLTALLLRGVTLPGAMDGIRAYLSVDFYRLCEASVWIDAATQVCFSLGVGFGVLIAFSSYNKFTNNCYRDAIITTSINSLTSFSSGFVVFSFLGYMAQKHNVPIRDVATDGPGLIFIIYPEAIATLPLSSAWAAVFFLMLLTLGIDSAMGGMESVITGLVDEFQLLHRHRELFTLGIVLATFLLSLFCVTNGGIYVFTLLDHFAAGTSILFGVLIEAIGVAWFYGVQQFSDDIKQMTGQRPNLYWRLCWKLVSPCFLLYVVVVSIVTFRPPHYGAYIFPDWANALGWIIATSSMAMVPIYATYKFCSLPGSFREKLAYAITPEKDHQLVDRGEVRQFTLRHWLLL

O=[N+]([O-])c1ccc(CN2CCC(CCOC(c3ccc(F)cc3)c3ccc(F)cc3)CC2)cc1
Ratio pKi (Rattus norvegicus): 2.51

COc1ccc2c(c1)CCC(CN1CCN(CCOC(c3ccc(F)cc3)c3ccc(F)cc3)CC1)=C2
Ki [1]: 53 nM | Ratio pKi (Rattus norvegicus): 0.03

Fc1ccc(C(OCCC2CCN(Cc3ccc(Cl)cc3)CC2)c2ccc(F)cc2)cc1
Ratio pKi (Rattus norvegicus): 2.3

Cc1ccc(CN2CCC(CCOC(c3ccc(F)cc3)c3ccc(F)cc3)CC2)cc1
Ratio pKi (Rattus norvegicus): 1.62

Fc1ccc(C(OCCC2CCN(C[C@H]3Cc4ccccc4CN3)CC2)c2ccc(F)cc2)cc1
Ki [1]: 9.32 nM | Ki [2]: 15.2 nM | Ratio pKi (Rattus norvegicus): 0.21

Fc1ccc(C(OCCC2CCN(Cc3cc4ccccc4s3)CC2)c2ccc(F)cc2)cc1
Ki [1]: 1.61 nM | Ki [2]: 246 nM | Ratio pKi (Rattus norvegicus): 2.18

Fc1ccc(C(OCCN2CCN(Cc3cc4ccccc4[nH]3)CC2)c2ccc(F)cc2)cc1
Ki [1]: 0.7 nM | Ki [2]: 119 nM | Ratio pKi (Rattus norvegicus): 2.23

Fc1ccc(C(OCCC2CCN(C[C@H]3C[C@@H]3c3ccccc3)CC2)c2ccc(F)cc2)cc1
Ki [1]: 1.3 nM | Ki [2]: 136 nM | Ratio pKi (Rattus norvegicus): 2.02

COc1ccccc1CN1CCC(CCOC(c2ccc(F)cc2)c2ccc(F)cc2)CC1
Ratio pKi (Rattus norvegicus): 0.6

Fc1ccc(C(OCCN2CCN(Cc3cc4ccccc4o3)CC2)c2ccc(F)cc2)cc1
Ki [1]: 6.4 nM | Ki [2]: 286 nM | Ratio pKi (Rattus norvegicus): 1.65

Fc1ccc(C(OCCN2CCN(Cc3ccc4ccccc4n3)CC2)c2ccc(F)cc2)cc1
Ki [1]: 56 nM | Ki [2]: 51 nM | Ratio pKi (Rattus norvegicus): -0.04

Fc1ccc(C(OCCN2CCN(CC3=Cc4ccccc4CC3)CC2)c2ccc(F)cc2)cc1
Ratio pKi (Rattus norvegicus): 1.61

Fc1ccc(C(OCCC2CCN(Cc3ccc4ccccc4c3)CC2)c2ccc(F)cc2)cc1
Ki [1]: 0.71 nM | Ratio pKi (Rattus norvegicus): 2.51

Fc1ccc(C(OCCN2CCN(Cc3ccc4ncccc4c3)CC2)c2ccc(F)cc2)cc1
Ki [1]: 61.8 nM | Ki [2]: 551 nM | Ratio pKi (Rattus norvegicus): 0.95

O[C@H]1c2ccccc2CC[C@@H]1CN1CCN(CCOC(c2ccc(F)cc2)c2ccc(F)cc2)CC1
Ki [1]: 18 nM | Ki [2]: 32 nM | Ratio pKi (Rattus norvegicus): 0.25

Fc1ccc(C(OCCC2CCN(CC#Cc3ccccc3)CC2)c2ccc(F)cc2)cc1
Ki [1]: 5.3 nM | Ki [2]: 164 nM | Ratio pKi (Rattus norvegicus): 1.49

Fc1ccc(C(OCCC2CCN(Cc3ccc(Br)cc3)CC2)c2ccc(F)cc2)cc1
Ratio pKi (Rattus norvegicus): 2.26

O[C@H]1c2ccccc2CC[C@H]1CN1CCN(CCOC(c2ccc(F)cc2)c2ccc(F)cc2)CC1
Ratio pKi (Rattus norvegicus): 1.36

O=C1CCCC1CN1CCN(CCOC(c2ccc(F)cc2)c2ccc(F)cc2)CC1 (racemic)
Ratio pKi (Rattus norvegicus): 1.06

Fc1ccc(C(OCCC2CCN(Cc3cccc4ccccc34)CC2)c2ccc(F)cc2)cc1
Ratio pKi (Rattus norvegicus): 1.36

Fc1ccc(C(OCCN2CCN(CC34CC5CC(CC(C5)C3)C4)CC2)c2ccc(F)cc2)cc1
Ki [1]: 100 nM | Ki [2]: 598 nM | Ratio pKi (Rattus norvegicus): 0.78

Fc1ccc(C(OCCN2CCN(Cc3cccc4ccccc34)CC2)c2ccc(F)cc2)cc1
Ki [1]: 31 nM | Ki [2]: 243 nM | Ratio pKi (Rattus norvegicus): 0.89

CCCN1CCN(CCOC(c2ccc(F)cc2)c2ccc(F)cc2)CC1
Ratio pKi (Rattus norvegicus): 1.35

Fc1ccc(C(OCCC2CCN(C[C@@H]3C[C@H]3c3ccccc3)CC2)c2ccc(F)cc2)cc1
Ki [1]: 0.8 nM | Ki [2]: 22 nM | Ratio pKi (Rattus norvegicus): 1.44

Fc1ccc(C(OCCN2CCN(CCCCl)CC2)c2ccc(F)cc2)cc1
Ki [1]: 42 nM | Ki [2]: 338 nM | Ratio pKi (Rattus norvegicus): 0.91

Fc1ccc(C(OCCC2CCN(Cc3ccc(I)cc3)CC2)c2ccc(F)cc2)cc1
Ratio pKi (Rattus norvegicus): 1.99

CCN1CCN(CCOC(c2ccc(F)cc2)c2ccc(F)cc2)CC1
Ratio pKi (Rattus norvegicus): 1.79

Fc1ccc(C(OCCC2CCN(C[C@@H]3Cc4ccccc4CN3)CC2)c2ccc(F)cc2)cc1
Ki [1]: 4.77 nM | Ki [2]: 48.1 nM | Ratio pKi (Rattus norvegicus): 1

COc1ccc2c(c1)CC[C@@H](CN1CCN(CCOC(c3ccc(F)cc3)c3ccc(F)cc3)CC1)[C@H]2O
Ki [1]: 14 nM | Ratio pKi (Rattus norvegicus): -0.67

N#Cc1ccc(CN2CCC(CCOC(c3ccc(F)cc3)c3ccc(F)cc3)CC2)cc1
Ratio pKi (Rattus norvegicus): 2.7

COc1ccc(CN2CCC(CCOC(c3ccc(F)cc3)c3ccc(F)cc3)CC2)cc1
Ratio pKi (Rattus norvegicus): 1.53

Fc1ccc(C(OCCN2CCN(Cc3cc4ccccc4s3)CC2)c2ccc(F)cc2)cc1
Ki [1]: 4.1 nM | Ki [2]: 495 nM | Ratio pKi (Rattus norvegicus): 2.08

C=CCN1CCN(CCOC(c2ccc(F)cc2)c2ccc(F)cc2)CC1
Ratio pKi (Rattus norvegicus): 1.41

Fc1ccc(CN2CCC(CCOC(c3ccc(F)cc3)c3ccc(F)cc3)CC2)cc1
Ratio pKi (Rattus norvegicus): 2.03

Fc1ccc(C(OCCN2CCN(Cc3cnc4ccccc4c3)CC2)c2ccc(F)cc2)cc1
Ki [1]: 16.1 nM | Ki [2]: 485 nM | Ratio pKi (Rattus norvegicus): 1.48

Fc1ccc(C(OCCC2CCN(Cc3ccc(C(F)(F)F)cc3)CC2)c2ccc(F)cc2)cc1
Ratio pKi (Rattus norvegicus): 2.6

COc1ccc2c(c1)CCC(CN1CCN(CCOC(c3ccc(F)cc3)c3ccc(F)cc3)CC1)C2=O (racemic)
Ratio pKi (Rattus norvegicus): -0.87

Fc1ccc(C(OCCN2CCN(Cc3ccc4ccccc4c3)CC2)c2ccc(F)cc2)cc1
Ki [1]: 8 nM | Ki [2]: 312 nM | Ratio pKi (Rattus norvegicus): 1.59

O=C1c2ccccc2CCC1CN1CCN(CCOC(c2ccc(F)cc2)c2ccc(F)cc2)CC1 (racemic)
Ratio pKi (Rattus norvegicus): 0.29

Fc1ccc(C(OCCN2CCN(CC#Cc3ccccc3)CC2)c2ccc(F)cc2)cc1
Ki [1]: 20 nM | Ki [2]: 266 nM | Ratio pKi (Rattus norvegicus): 1.12

O=C1CCCCC1CN1CCN(CCOC(c2ccc(F)cc2)c2ccc(F)cc2)CC1 (racemic)
Ki [1]: 87 nM | Ki [2]: 1690 nM | Ratio pKi (Rattus norvegicus): 1.29

Fc1ccc(C(OCCC2CCN(Cc3ccccc3)CC2)c2ccc(F)cc2)cc1
Ratio pKi (Rattus norvegicus): 1.24

COc1cccc(CN2CCC(CCOC(c3ccc(F)cc3)c3ccc(F)cc3)CC2)c1
Ratio pKi (Rattus norvegicus): 1.08

O=C1CCCCCC1CN1CCN(CCOC(c2ccc(F)cc2)c2ccc(F)cc2)CC1 (racemic)
Ratio pKi (Rattus norvegicus): 1.03

Fc1ccc(C(OCCC2CCN(Cc3cc4ccccc4o3)CC2)c2ccc(F)cc2)cc1
Ki [1]: 1.01 nM | Ki [2]: 85 nM | Ratio pKi (Rattus norvegicus): 1.93

Fc1ccc(C(OCCC2CCN(Cc3cc4ccccc4[nH]3)CC2)c2ccc(F)cc2)cc1
Ki [1]: 0.73 nM | Ki [2]: 88 nM | Ratio pKi (Rattus norvegicus): 2.08
